Laboratory results from US20110098351A1, “Lactone compounds which can be used as antioxidant agents in pharmaceutical, cosmetic or food compositions and their method of preparation” (COMMISSISSARIAT A L'ENERGIE ATOMIQUE, priority 2002, published 2011).

How the values were obtained:
rat aorta rings [1] = test: Contraction of rat aorta rings induced by pyrogallol (superoxide radicals); settings: dipotassium salt form, 100 μM; FIG. 8
Experimental: (§1) The objective of this example is to show the antioxidant activity of norbadione in the dipotassium salt form on rat aorta rings.
During a first series of tests, rat aorta rings are subjected, in a first instance, to pyrogallol, which generates superoxide radicals, these radicals inducing contraction of the rat aorta rings and the rate of contraction of these rings is measured in the absence of norbadione.
In a second instance, the same operations are repeated, under the same conditions as those mentioned above, this time in the presence of norbadione.
The results are grouped together in FIG. 8, which represents the rate of vascular contraction of the rings C(g) as a function of the concentration of pyrrogallol [Pyr] (μM), in the absence of norbadione (curve a) and in the presence of norbadione at the concentration of 100 μM (curve b).

thymidine [2] = test: Thymidine degradation test, ultraviolet irradiation at 254 nm with H2O2, competition ELISA of remaining thymidine; assay type: biochemical; settings: dipotassium salt (Nor-B); UV 254 nm (1.75 J/cm^2), 5 mM H2O2; thymidine 70 μM, antioxidant 100 μM; FIG. 2; compared with conventional antioxidants (1)-(6)
Experimental: (§2) The evaluation of the antioxidant activity of the dipotassium salt of norbadione was carried out by a screening test in vitro.
(§3) This test is based on the monitoring of the degradation of thymidine subjected to various oxidant stresses in the presence of various antioxidant agents, which are norbadione in dipotassium salt form (called Nor-B in FIGS. 1 to 3) in accordance with the invention, and the following antioxidant agents: quercitin (1), fisetin (2), myricetin (3), catechin (4), 7-hydroxy-4-methyl-8-nitrocoumarin (5), Trolox (6) in FIGS. 1 to 3.
(§4) In the presence of an antioxidant, thymidine is protected more or less effectively according to the nature of the said antioxidant. The efficacy of the antioxidant is quantified by assaying the remaining thymidine (quantified as % on the y-axis of the graph) with the aid of an immunoenzymatic assay of the so-called “competition” ELISA type. This ELISA assay consists in producing competition, for binding to a thymidine-specific monoclonal antibody attached to a solid phase, between the thymidine remaining at the end of test and the thymidine labelled with an enzyme (acetylcholine esterase). After washing, the bound enzyme is quantified by colorimetric detection with the aid of 5,5′-dithiobis(2-nitrobenzoic acid) (termed Ellmann's reagent) and in the presence of […]. […]

rat aorta rings [3] = test: Relaxation of rat aorta rings induced by SYN-1 (3-morpholinosydnonimine, NO radicals); settings: dipotassium salt form, 100 μM; FIG. 9
Experimental: as §1
During a second series of tests, rat aorta rings are subjected to SYN-1 (3-morpholinosydnonimine), which generates NO radicals, inducing relaxation of the rat aorta rings, and the rate of relaxation of these rings is measured. In the presence of norbadione, the rate of relaxation of the rings is measured under the same conditions as those mentioned above. The results are presented in FIG. 9, which represents the rate of vascular relaxation of the rings R(%) as a function of the Sin−1 concentration [Sin−1] (μM), in the absence of norbadione (curve a) and in the presence of norbadione (100 μM) (curve b).

thymidine [4] = test: Thymidine degradation test, gamma irradiation (caesium 137), competition ELISA of remaining thymidine; assay type: biochemical; settings: dipotassium salt (Nor-B); gamma irradiation 3 h 30 min, 137Cs; thymidine 15 μM, antioxidant 12 μM; FIG. 1; compared with quercetin, fisetin, myricetin, catechin, 7-hydroxy-4-methyl-8-nitrocoumarin, Trolox
Experimental: as §2, §3, §4

[5] = system: RDM4 cell cultures (AKR mouse lymphomas); test: Protection of RDM4 cells subjected to ionizing radiation, Uptiblue test; assay type: cell-based; settings: for number of living cells after irradiation (Uptiblue fluorescence, A.F.U.): 0.12 to 20 μg/ml added two hours before X rays 15 MV, 8 Gy, sixth day, FIG. 6
Experimental: This test consists in measuring, in the presence or in the absence of norbadione in diacid or dipotassium salt form, the rate of survival of cells treated with ionizing radiation, with the aid of selective indicators for certain cellular organelles such as mitochondria.
Samples of norbadione in diacid or dipotassium salt form are added to RDM4 cell cultures (AKR mouse lymphomas) in increasing concentrations (from 0.12 to 20 μg/ml), two hours before irradiation. This is carried out by exposing microtest plates containing the cells to X rays of 15 MV, at 8 Gy, the culture medium being unchanged.
The number of living cells is determined on the sixth day by means of the Uptiblue test (which consists in measuring the micochondrial activity of the cells). The Uptiblue reagent (reazurin, also marketed under the ALAMAR BLUE trade mark) is a coloured oxidation-reduction indicator. The reazurin (blue and nonfluorescent) is reduced to resorufin (pink and fluorescent) by living cells.
Experimentally, the Uptiblue (diluted ¼ in the culture medium) is added to the cells in an amount of 20 μl per 200 μl well. After incubating for 4 hours at 37° C., the fluorescence is measured at a wavelength of 590 nm, after excitation at a wavelength of 530 nm with the aid of a fluorescence microplate reader (Fluorolite 1000, Dynex). The fluorescence intensity is proportional to the number of living cells. It is expressed as “arbitrary fluorescence unit”. This value depends on the setting of the apparatus (in particular the voltage) and the background noise (due to the fluorescence emitted by wells not containing cells, but containing Uptiblue). The latter value is subtracted from the experimental values.
The results of this test are grouped together in FIG. 6, which represents the fluorescence observed which makes it possible to quantify the number of living cells, the said fluorescence being expressed as arbitrary fluorescence units on the y-axis of the graph (A.F.U) as a function of the concentration of norbadione in the diacid or dipotassium salt form, noted [Nor-A] or [Nor-B] (in μg/ml).

thymidine [6] = test: Thymidine degradation test, chemical oxidant stress (Fenton's reagent), competition ELISA of remaining thymidine; assay type: biochemical; settings: dipotassium salt (Nor-B); Fenton's reagent 0.35 mM FeSO4/EDTA, 35 mM H2O2; thymidine 70 μM, antioxidant 20 μM; FIG. 3; compared with conventional antioxidants (1)-(6)
Experimental: as §2, §3, §4

TNF-α = TNF-α production by lipopolysaccharide-activated human PBMC, cytometric sandwich ELISA; assay type: cell-based; settings: 10^-8 M to 10^-5 M, Salmonella abortus equi lipopolysaccharide 5 μg/ml, 24 hours, FIGS. 4 and 5
Experimental: (§5) This liposaccharide is an endotoxin located on the outer membrane of Gram-negative bacteria. In particular, it stimulates the production of proinflammatory cytokines by the mononuclear cells (monocytes, microphages) of the infected host.
(§6) This test is carried out in the following manner. […]
(§7) More specifically, the detection of the cytokines present in the samples is measured with the aid of a “sandwich” type cytometric ELISA assay. Microparticles (beads) of polystyrene (of 6 different types, each being labelled with a different quantity of fluorescent dye whose FL-3 emission wavelength is about 650 nm) are coupled to an antibody specific for one of the […] TNFα, IL-2, IL-10. […] The cytokines captured are detected with the aid of a directly performed immunological test which uses 2 antibodies specific for each cytokine, coupled to phycoerythrin which emits at an FL-2 wavelength of about 585 nm (Ab-PE). After washing the excess Ab-PE, the presence of the cytokines is measured by flow cytometry.
(§8) The fluorescence is measured based on the 6 FL-3 fluorescence intensities and based on the FL-2 wavelength. The intensity of the […] fluorescence makes it possible to determine the quantity of each cytokine present in the sample (in comparison with standard curves). […]

IL-10 = IL-10 production by lipopolysaccharide-activated human PBMC, cytometric sandwich ELISA; assay type: cell-based; settings: 10^-8 M to 10^-5 M, Salmonella abortus equi lipopolysaccharide 5 μg/ml, 24 hours, FIGS. 4 and 5
Experimental: as §5, §6, §7, §8

[7] = system: Human thyroid carcinoma K1 cells; test: Protection of K1 cells against cisplatin, sulphorhodamine B test; assay type: cell-based; settings: norbadione 20 μg/ml added two hours before cisplatin 12 to 100 μM, two days, FIG. 7
Experimental: This test consists in measuring, in the presence of norbadione in the diacid or dipotassium salt form, the rate of survival of cells treated with cisplatin.
Human thyroid carcinoma K1 cells are cultured in flat-bottomed 96-well microtest plates in the presence of a single concentration (20 μg/ml) of norbadione in the diacid or dipotassium salt form. After two hours, a genotoxic agent, cisplatin, is added to the culture medium in increasing concentrations (from 12 to 100 μm). Two days later, the number of cells is determined by means of the sulphorhodamine B (termed SRB) test, which measures the quantity of cellular proteins.
Sulphorhodamine B (termed SRB) is an anionic dye which binds electrostatically to cellular proteins. This test is frequently used for the evaluation of the cytotoxic and cytostatic activities of novel antitumour drugs.
Further information relating to this technique is available in the article by Papazisis et al. “Optimization of the sulforhodamine B colorimetric assay”, J. Immunol. Meth, 208, pages 151-158, 1997 [8].
The results of this test are grouped together in FIG. 7, which represents the fluorescence observed after addition of SRB (expressed as arbitrary fluorescence units) as a function of the cisplatin concentration (in μM).

Row | Molecule | contraction of the aorta rings caused by pyrogallol (rat aorta rings [1]) | antioxidant power (percentage of thymidine remaining after oxidant stress) (thymidine [2]) | relaxation of the aorta rings caused by SYN-1 (rat aorta rings [3]) | antioxidant power (percentage of thymidine remaining after oxidant stress) (thymidine [4]) | number of living cells after irradiation (Uptiblue fluorescence) at the highest concentration ([5]; RDM4 cells, X rays 8 Gy, from a norbadione concentration of 20 μg/ml) | effect on the growth and the viability of the RDM4 cells ([5]; without irradiation, even at 20 μg/ml) | antioxidant power (percentage of thymidine remaining after oxidant stress) (thymidine [6]) | production of the cytokine TNF-α (percentage response relative to control) (TNF-α) | production of the cytokine IL-10 (percentage response relative to control) (IL-10) | cytotoxicity of cisplatin in the presence of norbadione (SRB test) [7] | number of living cells after irradiation (Uptiblue fluorescence, A.F.U.) ([5]; RDM4 cells) | number of living cells after irradiation (Uptiblue fluorescence, A.F.U.) ([5]; RDM4 cells, listed as norbadione diacid form) | number of living cells after irradiation (Uptiblue fluorescence, A.F.U.) ([5]; RDM4 cells, listed as norbadione disalt form)
1 | norbadione | suppressed | best antioxidant power | reduced | best antioxidant power | decreases considerably | without effect | best antioxidant power | – | – | – | – | – | –
2 | O=C1O/C(=C(/C(=O)O)c2ccc(O)cc2)C(O)=C1c1cc2c3c(c(O)cc(C4=C(O)/C(=C(\C(=O)O)c5ccc(O)cc5)OC4=O)c3c1)OC2=O [Nor-A, norbadione] | – | – | – | – | – | – | – | significant dose-dependent reduction | significant dose-dependent reduction | very markedly attenuated | large increase | protects the cells against ionizing radiation in a significant and dose-dependent manner | –
3 | O=C1O/C(=C(/C(=O)[O-])c2ccc(O)cc2)C(O)=C1c1cc2c3c(c(O)cc(C4=C(O)/C(=C(\C(=O)[O-])c5ccc(O)cc5)OC4=O)c3c1)OC2=O.[K+].[K+] [Nor-B, norbadione] | – | – | – | – | – | – | – | significant dose-dependent reduction | significant dose-dependent reduction | very markedly attenuated | large increase | – | protects the cells against ionizing radiation in a significant and dose-dependent manner
